Eleven compounds from ChEMBL document CHEMBL1201862, “PubChem BioAssay data set” (2004) can be followed below.

What all share (experiment): DTP human tumour cell line panel, 48 h
Test [1] relates to UO-31.
In test [2] the test system is SNB-75.
Test [3] relates to MDA-N.
Test [4] relates to K562.
Test [5] concerns NCI/ADR-RES.
Test [6] deals with T47D.
The test system of test [7] is HCT-15.
The subject of test [8] is RXF 393.
The subject of test [9] is NCI-H522.
The subject of test [10] is SK-MEL-28.
Test [11] concerns DU-145.
The subject of test [12] is MDA-MB-435.
The subject of test [13] is A498.
The subject of test [14] is SNB-19.
In test [15] the test system is IGROV-1.
The test system of test [16] is MOLT-4.
Test [17] has as its system KM12.
Test [18] relates to MCF7.
Test [19] relates to SF-539.
In test [20] the test system is HOP-92.

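Protocol summary: plate cells (96-well), add compound at 5 concentrations, incubate 48 h, interpolate endpoints linearly. GI50 = concentration required for 50% inhibition of growth.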 Activity calls are given as the source filed them. No stated cut-off is given here; in the data, active = GI50 up to about 1.1 µM and inactive = higher.

`O=C1c2ccccc2C(=O)N1C1(C(=O)NC2(C(=O)O)CCCC2)CCCC1`: the GI50 in test [1], in [2], in test [3], in test [4], in [5] and in test [6] was > 100 µM (inactive) throughout. The GI50 in [7] was more than 100 µM; in [8], > 100 µM (inactive); in test [9] it was > 100 µM (inactive); in [10] it was > 100 µM (inactive); in test [11] it was > 100 µM (inactive); in test [12], > 100 µM (inactive). Also, the GI50 in test [13], in [14], in [15], in test [16], in test [17] and in test [18] was > 100 µM (inactive) in each case.

On to `Cc1cc(Cc2cc(C)c(N)cc2N)c(N)cc1N`, for which the GI50 in test [1], in [2], in [3], in [4], in test [5] and in test [6] was > 100 µM (inactive) in each case. Besides, the GI50 in test [7] is more than 100 µM; in test [8], > 100 µM (inactive); in [9], 88.9 µM (inactive); in test [10], > 100 µM (inactive); in test [19], 80.2 µM (inactive); in test [11] it was > 100 µM (inactive). The GI50 was 99.3 µM (inactive) in test [12]; > 100 µM (inactive) in [13]; > 100 µM (inactive) in test [14]; 4.38 µM (inactive) in test [15]; 33.3 µM (inactive) in test [16]; 85.5 µM (inactive) in [17]. Besides, in test [18], the GI50 was > 100 µM (inactive).

As for `O=C(O)/C(=C\c1ccc(O)cc1)c1cccc2ccccc12`, the GI50 in [1], in test [2], in [3], in [4], in test [5] and in test [6] was > 100 µM (inactive) in each case. Moreover, the GI50 in [7] was more than 100 µM; in [8] it was > 100 µM (inactive); in [9] it was > 100 µM (inactive); in test [10], > 100 µM (inactive); in test [11] it was > 100 µM (inactive); in test [20] it was > 100 µM (inactive). The GI50 in test [12], in test [13], in test [14], in test [15], in test [16] and in [17] was > 100 µM (inactive) throughout.

For `Cc1cc2c(s1)C(N)CC2=O` (stereo unspecified), the GI50 in test [1], in test [2], in [3], in test [4], in [5] and in test [6] was > 100 µM (inactive) throughout. In addition, the GI50 in [7] is more than 100 µM; in [8], > 100 µM (inactive); in test [10], > 100 µM (inactive); in test [19] it was > 100 µM (inactive); in [11], > 100 µM (inactive); in test [12] it was > 100 µM (inactive). For the same compound, the GI50 in test [13], in [14], in [15], in [16], in test [17] and in test [18] was > 100 µM (inactive) in each case.

In the case of `Clc1cccc(Cl)c1C1SCc2nc3ncccc3n21` (stereo unspecified), the GI50 is > 100 µM (inactive) in [1]; 40.6 µM (inactive) in test [2]; 62.8 µM (inactive) in test [3]; 49.5 µM (inactive) in test [4]; > 100 µM (inactive) in test [5]; > 100 µM (inactive) in test [6]. The GI50 in test [7] is more than 100 µM; in test [8], > 100 µM (inactive); in test [9], > 100 µM (inactive); in [10] it was > 100 µM (inactive); in [19], > 100 µM (inactive); in test [11], > 100 µM (inactive). The GI50 in test [12] was 39.4 µM (inactive); in test [13] it was > 100 µM (inactive); in [14], > 100 µM (inactive); in test [15], > 100 µM (inactive); in test [16], 61.8 µM (inactive); in [17], 52.8 µM (inactive).

With `O=S(=O)(O)c1cccc2ccc(O)c(/N=N\c3ccc(S(=O)(=O)c4ccc(/N=N/c5c(O)ccc6cccc(S(=O)(=O)O)c56)cc4)cc3)c12`, the GI50 in [1] was 63.4 µM (inactive); in [2], 65.5 µM (inactive); in test [3], > 100 µM (inactive); in test [4], 50.4 µM (inactive); in test [5], > 100 µM (inactive); in test [6] it was > 100 µM (inactive). Also, the GI50 is more than 100 µM in test [7]; > 100 µM (inactive) in test [8]; > 100 µM (inactive) in test [9]; > 100 µM (inactive) in test [10]; > 100 µM (inactive) in [11]; > 100 µM (inactive) in [20]. For the same compound, the GI50 in [12] is > 100 µM (inactive); in test [14] it was > 100 µM (inactive); in test [15], 81.5 µM (inactive); in [16], > 100 µM (inactive); in [17] it was 67.3 µM (inactive).

Take `CC(C)c1cccc(C(=O)NCCN(C)C)c1[N+](=O)[O-]`: the GI50 in test [1] was > 100 µM (inactive); in test [2] it was 35 µM (inactive); in test [3], > 100 µM (inactive); in [4], > 100 µM (inactive); in test [5], > 100 µM (inactive); in [6], > 100 µM (inactive). The GI50 is more than 100 µM in test [7]; > 100 µM (inactive) in test [9]; > 100 µM (inactive) in test [10]; > 100 µM (inactive) in test [19]; > 100 µM (inactive) in test [11]; > 100 µM (inactive) in test [12]. The GI50 is 65.9 µM (inactive) in [13]; > 100 µM (inactive) in [14]; > 100 µM (inactive) in [15]; > 100 µM (inactive) in test [16]; > 100 µM (inactive) in [17]; > 100 µM (inactive) in test [18].

For the compound `N#Cc1nc(C2CC2)oc1N`, the GI50 in test [2] is > 100 µM (inactive); in test [3], > 100 µM (inactive); in test [4] it was > 100 µM (inactive); in [5], > 100 µM (inactive); in [6], > 100 µM (inactive); in [7] it was more than 100 µM. In addition, the GI50 in [8] was > 100 µM (inactive); in test [9], 25.2 µM (inactive); in test [10], > 100 µM (inactive); in test [19], > 100 µM (inactive); in [11] it was > 100 µM (inactive); in [20], > 100 µM (inactive). Moreover, the GI50 in test [12] was > 100 µM (inactive); in test [14], > 100 µM (inactive); in test [15], > 100 µM (inactive); in test [16], > 100 µM (inactive); in [17] it was 25.7 µM (inactive); in [18], > 100 µM (inactive).

On to `CC(C)[Si](OC1=C(C(=O)N(C)c2ccccc2Cl)CCC1)(C(C)C)C(C)C`, for which the GI50 in [1] is 15.8 µM (inactive); in [2], 13.3 µM (inactive); in [3], 19.8 µM (inactive); in [5] it was 16.2 µM (inactive); in test [6], 19.7 µM (inactive); in [7], 16.5 µM. For the same compound, the GI50 in test [8] is 18.3 µM (inactive); in test [9], 14.1 µM (inactive); in test [10], 21.5 µM (inactive); in test [19] it was 22.9 µM (inactive); in test [11], 22 µM (inactive); in test [20], 18.3 µM (inactive). The GI50 in [12] is 19 µM (inactive); in test [13] it was 15.6 µM (inactive); in test [14], 15.8 µM (inactive); in [15], 18.3 µM (inactive); in [16], 30.3 µM (inactive); in test [17] it was 20.6 µM (inactive).

As to `Cc1ccc(/N=N/C(=O)NNc2ccc(C)cc2Br)c(Br)c1`, the GI50 is 16 µM (inactive) in test [1]; 40.8 µM (inactive) in test [2]; 19.3 µM (inactive) in [3]; 16.4 µM (inactive) in test [4]; 17.8 µM (inactive) in [6]; 20 µM in test [7]. Besides, the GI50 was 26.1 µM (inactive) in test [9]; 21.4 µM (inactive) in [10]; 19.9 µM (inactive) in test [11]; 30.5 µM (inactive) in test [12]; 26.9 µM (inactive) in [13]; 32.5 µM (inactive) in [14]. The GI50 in [15] was 20.8 µM (inactive); in test [16], 10.4 µM (inactive); in test [18], 21.8 µM (inactive).

Turning to `c1ccc(-c2cccc(-c3ccccn3)n2)nc1` [TERPYRIDINE], the GI50 in test [1] was 0.197 µM (active); in test [2], 1.57 µM (inactive); in test [3], 0.441 µM (active); in test [4], 0.345 µM (active); in test [5] it was 0.321 µM (active); in test [6] it was 1.1 µM (active). The GI50 in [7] is 0.407 µM; in test [8] it was 0.424 µM (active); in [9], 0.489 µM (active); in test [10] it was 0.706 µM (active); in test [19], 0.51 µM (active); in test [11], 0.324 µM (active). Also, the GI50 in test [12] was 0.483 µM (active); in [13], 1.09 µM (active); in test [14], 0.935 µM (active); in test [15] it was 0.48 µM (active); in test [16], 0.308 µM (active); in test [17] it was 0.507 µM (active). In addition, the concentration for 50% growth inhibition (GI50) in test [18] was 0.394 µM (active).
